Results from US9943501B2 (KOJUN JAPAN CO., LTD., priority 2014, dated 2018).

Legend:
[1] = test system: C57BL/6J mice fed with a high-fat diet; assay: Anti-obesity effect (body weight) on dietary-induced obesity mouse model; assay type: in vivo; details: 12 weeks; for body weight gain inhibited, with respect to the body weight gain of the control group attributed to the high-calorie diet: once a day into the stomach, 84th day
Experimental: The 5H4PB obtained in Example 6 administered to mice fed with a high-fat diet to verify its anti-obesity effect. Five-week-old male C57BL/6J mice (supplied by Charles River Laboratories Japan, Inc.) were individually raised (one per cage) under environmental conditions involving a temperature of 20 to 26° C., a humidity of 35 to 75%, and 12-hour illumination (7:00 to 19:00). After acclimatization for approximately 1 week, the mice were divided into 6 groups each involving 6 to 8 individuals. Of the test groups, a normal group was fed with a normal solid diet CRF1 (a product of Oriental Yeast Co., Ltd., 3.57 kcal/g) during the test period, and a control group and drug administration groups were fed with a high-calorie solid diet D12492 (a product of Research Diets, Inc., 5.24 kcal/g) during the test period. The diets were freely taken, and water was also freely taken from water supply bottles.
The test substance 5H4PB (produced in Example 6) or a positive control substance rosiglitzaone (a product of Wako Pure Chemical Industries, Ltd.) was administered once a day for 12 weeks at the predetermined dose shown in Table 2 to the mice in each drug administration group. The rosiglitazone is a selective PPARγ ligand and is a substance having the effect of lowering the concentrations of glucose, fatty acid, and insulin in blood through binding to PPARγ. For the administration, body weight measurement was carried out once a week to calculate the dose to each individual. 5H4PB and rosiglitazone were each suspended in a 0.5 w/v % aqueous methylcellulose solution and diluted with the same aqueous solution to adjust the administration dose to 10 mL/kg. Then, each substance was forced-administered into the stomach using a syringe and a flexible stomach tube. […]
From the start of the test (administration), the body weight of each individual was measured at a frequency of once a week, and the average body weight of each test group was determined. […]

[2] = test system: C57BL/6J mice fed with a high-fat diet; assay: Adiponectin in blood of dietary-induced obesity mouse model; assay type: in vivo; details: 85 days, FIG. 15
Description: Adiponectin is a secretory protein related to dysmetabolic syndrome such as insulin resistance, diabetes mellitus or arteriosclerosis. Adiponectin-deficient mice have the properties of being more likely to develop insulin resistance and being more likely to be affected by arteriosclerosis than wild-type mice. In humans as well, it is known that lowered adiponectin concentrations are related to dysmetabolic syndrome such as diabetes mellitus and arteriosclerosis. Thus, the dietary-induced obesity mouse models of Example 9 were subjected to the test of measuring the amount of adiponectin in blood.
For each individual of the male C57BL/6J mice after a lapse of 85 days into the test of Example 9, blood was collected from the abdominal vena cava using a syringe supplemented with heparin under anesthesia with 2% isoflurane. The amount of blood collected was set to approximately 0.8 mL. The collected blood was stored under ice cooling until centrifugation. After centrifugation (conditions: 4° C., approximately 1800×g, 10 min), the upper layer was recovered to obtain plasma. The plasma was dispensed to sampling tubes and cryopreserved until measurement. The mouse adiponectin concentration contained in the mouse plasma obtained from each individual was measured using a commercially available ELISA kit, and the average adiponectin concentration of each test group was determined. […]

## O=C1C=C(c2ccccc2)C(O)O1 (centres unmarked) [5H4PB, 5-hydroxy-4-phenylbutenolide]
[1]; 0.037 μg/kg/day and 0.01 mg/kg/day
  anti-obesity effect (overall): high anti-obesity effect
[1]; 0.037 μg/kg/day
  body weight gain inhibited, with respect to the body weight gain of the control group attributed to the high-calorie diet: 25.8%
[1]; 0.01 mg/kg/day
  body weight gain inhibited, with respect to the body weight gain of the control group attributed to the high-calorie diet: 27.8%
[2]; 0.01 mg/kg/day
  adiponectin concentration in mouse plasma compared with the control group (t test): significant rise in adiponectin concentration
[2]; 5H4PB administration groups (0.037 μg/kg/day and 0.01 mg/kg/day)
  adiponectin concentration in mouse plasma compared with the control group: confirmed to elevate
